Data: US20240041042A1, “1-(PYRIDYL)-5-AZINYLPYRAZOLE DERIVATIVES, AND THEIR USE FOR CONTROL OF UNDESIRED PLANT GROWTH” (Bayer Aktiengesellschaft, priority 2020, published 2024)
Where two headings read alike, the source gives them in different places. Each block holds one compound with its values, some of them ahead of it.

Legend:
Format in all cases: in vivo
[1] = tested on: Verconica persica (VERPE); assay: Pre-emergence herbicidal action against VERPE; conditions: dosage 320 g/ha
Summary of the method: (§1)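 Greenhouse pot trial: seeds sown, soil-covered, sprayed before emergence with compound in water (0.5% additive; 600 l/ha; ≤320 g/ha). Scoring visual, ~3 weeks, 0–100% scale vs untreated.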

[2] = tested on: Amaranthus retroflexus (AMARE); assay: Pre-emergence herbicidal action against AMARE; conditions: 320 g/ha, visual scoring after about 3 weeks vs untreated controls
Summary of the method: as §1

[3] = tested on: Alopecurus myosuroides (ALOMY); assay: Post-emergence herbicidal action against ALOMY; conditions: visual rating about 3 weeks after treatment vs untreated controls (100% = plants have died, 0% = like control plants)
Summary of the method: (§2)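 Post-emergence greenhouse spray, one-leaf stage, 600 l/ha water plus 0.5% additive; WP or EC formulations; application rates 320 g/ha or lower. Visual % damage vs untreated controls at ~3 weeks.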

[4] = tested on: Polygonum convolvulus (POLCO); assay: Pre-emergence herbicidal action against POLCO; conditions: dosage 320 g/ha
Summary of the method: as §1

Zea mays (ZEAMX) [5] = conditions: pre-emergence, 80 g/ha, crop plant compatibility, in comparison to untreated controls
Summary of the method: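 Scoring: visual, % of untreated control, about 3 weeks after a pre-emergence application to the soil surface. Application used WP or EC formulations diluted in water with 0.5% additive at 600 l/ha; dosage levels are marked by suffixes a, b and c.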

Setaria viridis (SETVI) [6] = assay: Post-emergence herbicidal action against SETVI
Summary of the method: as §2

[7] = tested on: Matricaria inodora (MATIN); assay: Pre-emergence herbicidal action against MATIN; conditions: dosage 320 g/ha
Summary of the method: as §1

[8] = tested on: Echinochloa crus-galli (ECHCG); assay: Pre-emergence herbicidal action against ECHCG; conditions: dosage 320 g/ha
Summary of the method: as §1

Zea mays (ZEAMX) [9] = tested on: Zea mays (ZEAMX)
Summary of the method: (§3)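 Foliar application at the one-leaf stage: WP/EC formulation, 0.5% additive, 600 l/ha water. Greenhouse-grown in sandy loam. Endpoint is visual % injury relative to untreated controls at about 3 weeks.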

Oryza sativa (ORYSA) = conditions: crop plant compatibility
Summary of the method: as §3

[10] = tested on: Digitaria sanguinalis (DIGSA); assay: Pre-emergence herbicidal action against DIGSA
Summary of the method: as §1

Setaria viridis (SETVI) [11] = assay: Pre-emergence herbicidal action against SETVI
Summary of the method: as §1

Viola tricolor (VIOTR) [12] = assay: Pre-emergence herbicidal action against VIOTR
Summary of the method: as §1

[13] = tested on: Amaranthus retroflexus (AMARE); assay: Post-emergence herbicidal action against AMARE
Summary of the method: as §2

[14] = tested on: Alopecurus myosuroides (ALOMY); assay: Pre-emergence herbicidal action against ALOMY; conditions: 320 g/ha; scored visually after about 3 weeks; 100% = plants have died
Summary of the method: as §1

[15] = tested on: Abutilon theophrasti (ABUTH); assay: Post-emergence herbicidal action against ABUTH; conditions: visual rating about 3 weeks after treatment vs untreated controls (100% = plants have died, 0% = like control plants)
Summary of the method: as §2

Lolium rigidum (LOLRI) [16] = assay: Pre-emergence herbicidal action against LOLRI
Summary of the method: as §1

[17] = tested on: Matricaria inodora (MATIN); assay: Post-emergence herbicidal action against MATIN; conditions: dosage 320 g/ha
Summary of the method: as §2

Lolium rigidum (LOLRI) [18] = assay: Post-emergence herbicidal action against LOLRI
Summary of the method: as §2

[19] = tested on: Pharbitis purpurea (PHBPU); assay: Post-emergence herbicidal action against PHBPU
Summary of the method: as §2

Avena fatua (AVEFA) [20] = assay: Post-emergence herbicidal action against AVEFA; conditions: visual rating about 3 weeks after treatment
Summary of the method: as §2

Viola tricolor (VIOTR) [21] = assay: Post-emergence herbicidal action against VIOTR
Summary of the method: as §2

[22] = tested on: Digitaria sanguinalis (DIGSA); assay: Post-emergence herbicidal action against DIGSA; conditions: visual rating about 3 weeks after treatment
Summary of the method: as §2

Avena fatua (AVEFA) [23] = assay: Pre-emergence herbicidal action against AVEFA; conditions: 320 g/ha, visual scoring after about 3 weeks vs untreated controls
Summary of the method: as §1

[24] = tested on: Polygonum convolvulus (POLCO); assay: Post-emergence herbicidal action against POLCO; conditions: dosage 320 g/ha
Summary of the method: as §2

[25] = tested on: Verconica persica (VERPE); assay: Post-emergence herbicidal action against VERPE
Summary of the method: as §2

[26] = tested on: Pharbitis purpurea (PHBPU); assay: Pre-emergence herbicidal action against PHBPU; conditions: dosage 320 g/ha
Summary of the method: as §1

[27] = tested on: Echinochloa crus-galli (ECHCG); assay: Post-emergence herbicidal action against ECHCG
Summary of the method: as §2

[28] = 80 g/ha, effect in comparison to untreated controls
[29] = 80 g/ha, visual scoring after about 3 weeks vs untreated controls

Pre-emergence action against ZEAMX in % (Zea mays (ZEAMX) [5]): 0%
Post-emergence action against ZEAMX in % (crop plant compatibility) (Zea mays (ZEAMX) [9]; 20 g/ha, ZEAMX, effect in comparison to untreated controls): 0%
Post-emergence action against ORYSA in % (Oryza sativa (ORYSA); 20 g/ha, effect vs untreated controls): 0%
Post-emergence action against ORYSA in % (Oryza sativa (ORYSA); [28]): 0%
Compound: CCOC(=O)CN(C)S(=O)(=O)NC(=O)COc1nn(-c2ncccc2F)c(-c2ccc(F)nc2)c1Br [Example I-54]
Pre-emergence action against VERPE in % [1]: 100%
Pre-emergence action against AMARE in % [2]: 100%
Post-emergence action against ALOMY in % ([3]; 80 g/ha): 90%
Pre-emergence action against POLCO in % [4]: 90%
Post-emergence action against SETVI in % (Setaria viridis (SETVI) [6]; dosage 80 g/ha): 80%
Pre-emergence action against MATIN in % [7]: 100%
Pre-emergence action against ECHCG in % [8]: 100%
Pre-emergence action against DIGSA in % [10, 29]: 100%
Pre-emergence action against DIGSA in % ([10]; dosage 320 g/ha): 100%
Pre-emergence action against SETVI in % (Setaria viridis (SETVI) [11]; dosage 320 g/ha): 100%
Pre-emergence action against VIOTR in % (Viola tricolor (VIOTR) [12]; 320 g/ha, Viola tricolor): 100%
Pre-emergence action against VIOTR in % (Viola tricolor (VIOTR) [12]; dosage 80 g/ha): 100%
Post-emergence action against AMARE in % ([13]; 80 g/ha, visual rating about 3 weeks after treatment vs untreated controls (100% = plants have died, 0% = like control plants)): 80%
Pre-emergence action against ALOMY [14]: 100%
Post-emergence action against ABUTH in % ([15]; 80 g/ha): 80%

Post-emergence action against ZEAMX in % (Zea mays (ZEAMX) [9]; crop plant compatibility, 80 g/ha, effect vs untreated controls): 20%
Post-emergence action against ORYSA in % (Oryza sativa (ORYSA); [28]): 0%
Compound: CCOC(=O)COc1nn(-c2nc(F)ccc2F)c(-c2ccc(F)nc2)c1C1CC1 [Example I-348]
Pre-emergence action against VERPE in % [1]: 90%
Pre-emergence action against LOLRI in % (Lolium rigidum (LOLRI) [16]; dosage 80 g/ha): 90%
Pre-emergence action against LOLRI in % (Lolium rigidum (LOLRI) [16]; dosage 320 g/ha): 100%
Post-emergence action against MATIN in % [17]: 80%
Post-emergence action against LOLRI in % (Lolium rigidum (LOLRI) [18]; dosage 80 g/ha): 80%
Post-emergence action against LOLRI in % (Lolium rigidum (LOLRI) [18]; dosage 320 g/ha): 80%
Post-emergence action against PHBPU in % ([19]; dosage 80 g/ha): 80%
Post-emergence action against PHBPU in % ([19]; dosage 320 g/ha): 80%
Pre-emergence action against AMARE in % [2]: 90%
Post-emergence action against AVEFA in % (Avena fatua (AVEFA) [20]; 80 g/ha): 80%
Post-emergence action against AVEFA in % (Avena fatua (AVEFA) [20]; 320 g/ha): 80%
Post-emergence action against ALOMY in % ([3]; 80 g/ha): 80%
Post-emergence action against ALOMY in % ([3]; 320 g/ha): 90%
Post-emergence action against VIOTR in % (Viola tricolor (VIOTR) [21]; 80 g/ha): 80%
Post-emergence action against VIOTR in % (Viola tricolor (VIOTR) [21]; 320 g/ha): 80%
Post-emergence action against DIGSA in % ([22]; 80 g/ha): 80%
Post-emergence action against DIGSA in % ([22]; 320 g/ha): 90%
Pre-emergence action against AVEFA in % (Avena fatua (AVEFA) [23]): 90%
Post-emergence action against SETVI in % (Setaria viridis (SETVI) [6]; dosage 80 g/ha): 80%
Post-emergence action against SETVI in % (Setaria viridis (SETVI) [6]; dosage 320 g/ha): 90%
Pre-emergence action against MATIN in % [7]: 90%
Pre-emergence action against ECHCG in % [8]: 90%
Pre-emergence action against DIGSA in % [10, 29]: 90%
Pre-emergence action against DIGSA in % ([10]; dosage 320 g/ha): 100%
Post-emergence action against POLCO in % [24]: 80%
Post-emergence action against VERPE in % ([25]; 320 g/ha, VERPE): 80%
Post-emergence action against VERPE in % ([25]; dosage 80 g/ha): 80%
Pre-emergence action against SETVI in % (Setaria viridis (SETVI) [11]; dosage 80 g/ha): 80%
Pre-emergence action against SETVI in % (Setaria viridis (SETVI) [11]; dosage 320 g/ha): 100%
Pre-emergence action against VIOTR in % (Viola tricolor (VIOTR) [12]; 320 g/ha, Viola tricolor): 90%
Pre-emergence action against VIOTR in % (Viola tricolor (VIOTR) [12]; dosage 80 g/ha): 80%
Pre-emergence action against PHBPU in % [26]: 90%
Post-emergence action against AMARE in % ([13]; 320 g/ha, visual rating about 3 weeks after treatment): 80%
Pre-emergence action against ALOMY [14]: 80%
Post-emergence action against ECHCG in % ([27]; dosage 80 g/ha): 90%
Post-emergence action against ECHCG in % ([27]; dosage 320 g/ha): 90%
Post-emergence action against ABUTH in % ([15]; 320 g/ha): 80%
